Assay results as given in ChEMBL document CHEMBL1201862, “PubChem BioAssay data set” (2004).
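Where inhibition never reached the appropriate level, the endpoint shown equals the highest concentration tested. Otherwise, values were interpolated linearly from a five-concentration, 48-hour dose response in 96-well plates. The concentration for 50% growth inhibition is given as GI50.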 Calls of active or inactive are those of the source. No stated cut-off is given here; in the data, active = GI50 up to about 1.1 µM and inactive = higher.

Columns and labels:
Test in all cases: NCI-60 cell line screen, 48 h
SF-268 = test system: SF-268
CAKI-1 = test system: CAKI-1
U-251 = test system: U-251
HCT-15 = test system: HCT-15
OVCAR-8 = test system: OVCAR-8
MDA-MB-231 = test system: MDA-MB-231
OVCAR-5 = test system: OVCAR-5
HOP-62 = test system: HOP-62
COLO 205 = test system: COLO 205
TK-10 = test system: TK-10
MCF7 = test system: MCF7
NCI-H460 = test system: NCI-H460
HT-29 = test system: HT-29
PC-3 = test system: PC-3
Hs-578T = test system: Hs-578T
BT-549 = test system: BT-549
RPMI-8226 = test system: RPMI-8226
MDA-N = test system: MDA-N
NCI/ADR-RES = test system: NCI/ADR-RES
SK-MEL-5 = test system: SK-MEL-5
SK-OV-3 = test system: SK-OV-3
SK-MEL-2 = test system: SK-MEL-2
DU-145 = test system: DU-145
IGROV-1 = test system: IGROV-1
OVCAR-3 = test system: OVCAR-3
UACC-257 = test system: UACC-257
NCI-H522 = test system: NCI-H522
OVCAR-4 = test system: OVCAR-4
MDA-MB-435 = test system: MDA-MB-435
SF-295 = test system: SF-295
T47D = test system: T47D
HCT-116 = test system: HCT-116
LOX IMVI = test system: LOX IMVI
NCI-H226 = test system: NCI-H226
M14 = test system: M14
CCRF-CEM = test system: CCRF-CEM
EKVX = test system: EKVX
Malme-3M = test system: Malme-3M
HOP-92 = test system: HOP-92
SNB-19 = test system: SNB-19
A549 = test system: A549
SW-620 = test system: SW-620
NCI-H23 = test system: NCI-H23
KM12 = test system: KM12
A498 = test system: A498
K562 = test system: K562
MOLT-4 = test system: MOLT-4
UO-31 = test system: UO-31
SR = test system: SR
SNB-75 = test system: SNB-75
ACHN = test system: ACHN
HCC 2998 = test system: HCC 2998
786-0 = test system: 786-0
SF-539 = test system: SF-539
SN12C = test system: SN12C
UACC-62 = test system: UACC-62
RXF 393 = test system: RXF 393
HL-60 = test system: HL-60
SK-MEL-28 = test system: SK-MEL-28

In the case of `CC(=O)N1C(C(=O)NNc2ccccc2)CSC1c1ccccc1` (stereo not drawn), the GI50 (SF-268) is reported as > 100 µM (inactive), the GI50 (CAKI-1) is reported as > 100 µM (inactive) and the GI50 (U-251) is reported as > 100 µM (inactive). For the same molecule, the GI50 (HCT-15) was 1.56 µM, the GI50 (OVCAR-8) was > 100 µM (inactive) and the GI50 (MDA-MB-231) was > 100 µM (inactive). The GI50 (OVCAR-5) was > 100 µM (inactive), the GI50 (HOP-62) was > 100 µM (inactive) and the GI50 (COLO 205) was 64.9 µM (inactive). The GI50 (TK-10) was > 100 µM (inactive), the GI50 (MCF7) was > 100 µM (inactive) and the GI50 (NCI-H460) was > 100 µM (inactive). The GI50 (HT-29) was > 100 µM (inactive), the GI50 (PC-3) was 5.3 µM (inactive) and the GI50 (Hs-578T) was > 100 µM (inactive). The GI50 (BT-549) was > 100 µM (inactive), the GI50 (RPMI-8226) was 37.8 µM (inactive) and the GI50 (MDA-N) was > 100 µM (inactive). The GI50 (NCI/ADR-RES) was > 100 µM (inactive), the GI50 (SK-MEL-5) was > 100 µM (inactive) and the GI50 (SK-OV-3) was > 100 µM (inactive). For the same molecule, the GI50 (SK-MEL-2) was > 100 µM (inactive), the GI50 (DU-145) was > 100 µM (inactive) and the GI50 (IGROV-1) was 36.6 µM (inactive). For the same molecule, the GI50 (OVCAR-3) was 58.2 µM (inactive), the GI50 (UACC-257) was > 100 µM (inactive) and the GI50 (NCI-H522) was 0.471 µM (active). For the same molecule, the GI50 (OVCAR-4) was > 100 µM (inactive), the GI50 (MDA-MB-435) was 16.7 µM (inactive) and the GI50 (SF-295) was > 100 µM (inactive). For the same molecule, the GI50 (T47D) was 69.7 µM (inactive), the GI50 (HCT-116) was > 100 µM (inactive) and the GI50 (LOX IMVI) was 3.16 µM (inactive). For the same molecule, the GI50 (NCI-H226) was > 100 µM (inactive), the GI50 (M14) was 16.7 µM (inactive) and the GI50 (CCRF-CEM) was 77.3 µM (inactive). For the same molecule, the GI50 (EKVX) was > 100 µM (inactive), the GI50 (Malme-3M) was > 100 µM (inactive) and the GI50 (HOP-92) was > 100 µM (inactive). For the same molecule, the GI50 (SNB-19) was > 100 µM (inactive), the GI50 (A549) was 71 µM (inactive) and the GI50 (SW-620) was > 100 µM (inactive). For the same molecule, the GI50 (NCI-H23) was > 100 µM (inactive), the GI50 (KM12) was 71.3 µM (inactive) and the GI50 (A498) was > 100 µM (inactive). For the same molecule, the GI50 (K562) was 3.42 µM (inactive), the GI50 (MOLT-4) was 4 µM (inactive) and the GI50 (UO-31) was 70.8 µM (inactive). For the same molecule, the GI50 (SR) was > 100 µM (inactive), the GI50 (SNB-75) was > 100 µM (inactive) and the GI50 (ACHN) was 4.47 µM (inactive). For the same molecule, the GI50 (HCC 2998) was 23 µM (inactive), the GI50 (786-0) was > 100 µM (inactive) and the GI50 (SF-539) was 62.8 µM (inactive). The GI50 (SN12C) was > 100 µM (inactive) and the GI50 (UACC-62) was 1.39 µM (inactive).

`CCOC(=O)NC(C(F)(F)F)(C(F)(F)F)P(=O)(OCC)OCC` was tested, and the GI50 (SF-268) was 42.6 µM (inactive), the GI50 (U-251) was 23.3 µM (inactive) and the GI50 (HCT-15) was 28.8 µM. The GI50 (OVCAR-8) was 36.6 µM (inactive), the GI50 (MDA-MB-231) was > 100 µM (inactive) and the GI50 (OVCAR-5) was 57.1 µM (inactive). For the same molecule, the GI50 (HOP-62) was 78.9 µM (inactive), the GI50 (COLO 205) was 38.6 µM (inactive) and the GI50 (TK-10) was 82 µM (inactive). For the same molecule, the GI50 (MCF7) was 75.2 µM (inactive), the GI50 (RXF 393) was 11.9 µM (inactive) and the GI50 (NCI-H460) was 31.7 µM (inactive). The GI50 (HT-29) was 27.5 µM (inactive), the GI50 (PC-3) was 22.8 µM (inactive) and the GI50 (Hs-578T) was 16.9 µM (inactive). The GI50 (BT-549) was 34 µM (inactive), the GI50 (RPMI-8226) was 24 µM (inactive) and the GI50 (MDA-N) was 29.2 µM (inactive). The GI50 (NCI/ADR-RES) was 36.7 µM (inactive), the GI50 (SK-OV-3) was 34.9 µM (inactive) and the GI50 (HL-60) was 65.2 µM (inactive). For the same molecule, the GI50 (DU-145) was > 100 µM (inactive), the GI50 (IGROV-1) was 40.6 µM (inactive) and the GI50 (OVCAR-3) was 45.2 µM (inactive). For the same molecule, the GI50 (NCI-H522) was 17.4 µM (inactive), the GI50 (OVCAR-4) was 18.7 µM (inactive) and the GI50 (MDA-MB-435) was 44.1 µM (inactive). For the same molecule, the GI50 (SF-295) was 51.2 µM (inactive), the GI50 (T47D) was 42.1 µM (inactive) and the GI50 (HCT-116) was 31 µM (inactive). For the same molecule, the GI50 (LOX IMVI) was 12.4 µM (inactive), the GI50 (NCI-H226) was 54.1 µM (inactive) and the GI50 (M14) was 25.9 µM (inactive). For the same molecule, the GI50 (CCRF-CEM) was 2.71 µM (inactive), the GI50 (Malme-3M) was 28.3 µM (inactive) and the GI50 (HOP-92) was 81.7 µM (inactive). For the same molecule, the GI50 (SNB-19) was 36.1 µM (inactive), the GI50 (SW-620) was 17.9 µM (inactive) and the GI50 (NCI-H23) was 34.5 µM (inactive). The GI50 (KM12) was 43.9 µM (inactive), the GI50 (A498) was 46.3 µM (inactive) and the GI50 (K562) was 10.9 µM (inactive). The GI50 (MOLT-4) was 4.11 µM (inactive), the GI50 (UO-31) was 24.3 µM (inactive) and the GI50 (SR) was > 10 µM (inactive). The GI50 (SNB-75) was 19.9 µM (inactive), the GI50 (ACHN) was 35.9 µM (inactive) and the GI50 (HCC 2998) was 75.2 µM (inactive). For the same molecule, the GI50 (786-0) was 45.2 µM (inactive), the GI50 (SN12C) was 32.8 µM (inactive) and the GI50 (SK-MEL-28) was 43.4 µM (inactive). The GI50 (UACC-62) was 28 µM (inactive).

With `Cc1cc(C)n(CN(Cn2nc(C)cc2C)c2ccc(N(Cn3nc(C)cc3C)Cn3nc(C)cc3C)cc2)n1` the GI50 (SF-268) was 24.8 µM (inactive), the GI50 (CAKI-1) was 26.1 µM (inactive) and the GI50 (U-251) was 27.9 µM (inactive). For the same molecule, the GI50 (HCT-15) was 21.5 µM, the GI50 (OVCAR-8) was 27.4 µM (inactive) and the GI50 (MDA-MB-231) was 45.7 µM (inactive). The GI50 (OVCAR-5) was 24.7 µM (inactive), the GI50 (HOP-62) was 25.8 µM (inactive) and the GI50 (COLO 205) was 17.7 µM (inactive). The GI50 (TK-10) was 29.9 µM (inactive), the GI50 (MCF7) was 20.3 µM (inactive) and the GI50 (RXF 393) was 20 µM (inactive). For the same molecule, the GI50 (NCI-H460) was 24.6 µM (inactive), the GI50 (HT-29) was 21.9 µM (inactive) and the GI50 (PC-3) was 23.7 µM (inactive). The GI50 (Hs-578T) was 18.2 µM (inactive), the GI50 (BT-549) was 19.2 µM (inactive) and the GI50 (RPMI-8226) was 13.4 µM (inactive). The GI50 (MDA-N) was 18.9 µM (inactive), the GI50 (NCI/ADR-RES) was 19.1 µM (inactive) and the GI50 (SK-MEL-5) was 16.5 µM (inactive). For the same molecule, the GI50 (SK-OV-3) was 25.9 µM (inactive), the GI50 (HL-60) was 30.5 µM (inactive) and the GI50 (SK-MEL-2) was 23.1 µM (inactive). The GI50 (DU-145) was 25.9 µM (inactive), the GI50 (IGROV-1) was 31.6 µM (inactive) and the GI50 (OVCAR-3) was 25.5 µM (inactive). The GI50 (UACC-257) was 18.6 µM (inactive), the GI50 (NCI-H522) was 20.2 µM (inactive) and the GI50 (OVCAR-4) was 17.2 µM (inactive). For the same molecule, the GI50 (MDA-MB-435) was 17.7 µM (inactive), the GI50 (SF-295) was 30.8 µM (inactive) and the GI50 (T47D) was 23.8 µM (inactive). For the same molecule, the GI50 (HCT-116) was 17.5 µM (inactive), the GI50 (M14) was 20 µM (inactive) and the GI50 (CCRF-CEM) was 14.4 µM (inactive). The GI50 (EKVX) was 26.9 µM (inactive), the GI50 (Malme-3M) was 22.3 µM (inactive) and the GI50 (HOP-92) was 23.9 µM (inactive). For the same molecule, the GI50 (SNB-19) was 24 µM (inactive), the GI50 (A549) was 28 µM (inactive) and the GI50 (SW-620) was 16.6 µM (inactive). For the same molecule, the GI50 (NCI-H23) was 21.2 µM (inactive), the GI50 (KM12) was 24.2 µM (inactive) and the GI50 (A498) was 22.2 µM (inactive). The GI50 (K562) was 18.7 µM (inactive), the GI50 (MOLT-4) was 28 µM (inactive) and the GI50 (UO-31) was 28.4 µM (inactive). The GI50 (SR) was 30.9 µM (inactive), the GI50 (ACHN) was 17.3 µM (inactive) and the GI50 (786-0) was 19.3 µM (inactive). The GI50 (SF-539) was 18.1 µM (inactive), the GI50 (SN12C) was 27.4 µM (inactive) and the GI50 (SK-MEL-28) was 18.7 µM (inactive). For the same molecule, the GI50 (UACC-62) was 24.2 µM (inactive).
